Assay results reported in patent publication US9282737B2, “Agent for preventing pollen dispersal” (NOF Corporation, priority 2008, dated 2016).
Entries after “also recorded” stand apart in the source; their conditions may differ.

Columns and labels:
[1] = test system: Cryptomeria japonica male flower buds and needle leaves; experiment: Evaluation 1: immersion test of Cryptomeria japonica
Method: Evaluation 1 (Immersion Test of Cryptomeria japonica)
First, as agents to be used for an immersion test of Cryptomeria japonica, fatty acid derivative, fatty acid, polyoxyalkylene derivative, fats and oils and the like shown in Tables 1 and 2 were prepared. Next, many branches (length about 10 cm) of Cryptomeria japonica with 15 male flower buds on the tip were taken from the same tree of Cryptomeria japonica, and each group (five leaves for one group) was immersed in the agents (100 ml) of Tables 1 and 2. After immersing for about 1 min, the branches were taken out from the liquid and placed in a beaker. Browning changes were inspected visually on the male flower buds and needle leaves after one week. The test was performed using Cryptomeria japonica of August and November.

[2] = HLB of agent; format: physicochemical
[3] = branches of August, immersed about 1 min in agent, browning inspected visually after one week
[4] = branches of November, immersed about 1 min in agent, browning inspected visually after one week

Compound	change of state of male flower bud (August) [1, 3]	change of state of male flower bud (November) [1, 4]	change of state of needle leaf (August) ([1]; in vivo)	change of state of needle leaf (November) ([1]; in vivo)	change of state of needle leaf (August) [1, 3]	change of state of needle leaf (November) [1, 4]	HLB [2]
CCCCCCCC/C=C\CCCCCCCC(=O)O [Comparative Example 1, oleic acid]	markedly browned	no effect; also recorded: no change	no change	no change			
CCCCCCCC/C=C\CCCCCCCC(=O)[O-].[Na+] [compound 2, sodium oleate]	markedly browned	no effect; also recorded: no change			no change	no change	
CCCCC/C=C\C/C=C\CCCCCCCC(=O)O [compound 3, linoleic acid]	markedly browned	no effect; also recorded: no change	no change	no change			
methoxypolyoxyethylene oleic acid ester [Example 3]	browned	browned	no change	no change			
polyoxyethylene dilinoleic acid ester [Example 4]	markedly browned	markedly browned	no change	no change			
polyoxyethylene glycerol linoleic acid ester [Example 9]	browned	browned	no change	no change			
polyoxyethylene linoleic acid ester [Example 2]	markedly browned	markedly browned	no change	no change			(HLB = 10.2)
polyoxyethylene linolenic acid ester [Comparative Example 5]	an effect was obtained; also recorded: markedly browned	an effect was obtained; also recorded: markedly browned					
polyoxyethylene methylglucoside oleic acid ester [Example 8]	browned	browned	no change	no change			
polyoxyethylene oleic acid ester [Example 1]	browned	browned			no change	no change	
polyoxyethylene sorbitan oleic acid ester [Example 6]	browned	browned					
polyoxyethylene sorbitan palmitic acid ester [compound 7]	no effect; also recorded: no change	no effect; also recorded: no change					
polyoxyethylene sorbitol [Comparative Example 6]	not influenced; also recorded: no change	not influenced; also recorded: no change			not influenced; also recorded: no change	not influenced; also recorded: no change	
polyoxyethylene sorbitol linoleic acid ester [Example 7]	browned	browned	ho change	no change			
polyoxyethylene stearic acid ester [compound 4]	no effect; also recorded: no change	no effect; also recorded: no change					
polyoxyethylene-block-polyoxypropylene oleic acid ester [Example 5]	browned	browned	no change	no change			
sunflower oil [compound 9]			no change	no change			
